From patent US9844550B2, “Phtalazinone derivatives and manufacturing process thereof” (ILDONG PHARM CO., LTD., priority 2013, dated 2017)

System: MDA-MB-436 breast cancer cell line
Test: Cell viability assay (MDA-MB-436)
Type: cell-based
Conditions: Homo sapiens, 144 h; MDA-MB-436 cells, treated 6 days
Method: 2. Cell Viability Assay (MDA-MB-436)
Cell viability assay was performed by using MDA-MB-436 cell line to measure cytotoxicity of compounds in the present invention. MDA-MB-436 breast cancer cell line was seeded into 96-well plates at 37° C. under 5% CO2 atmosphere using DMEM/F12 (Gibco) containing 10% FBS (Hyclone). After 24 hr incubation, cells were treated with the invented compounds at various concentrations for 6 days. The medium was changed every 3 day. 6 days later, A fluorescence reagent was used to determine the IC50 values.

| Compound | IC50 |
| --- | --- |
| COCC1(NC2CN(C(=O)c3cc(Cc4n[nH]c(=O)c5ccccc45)ccc3F)C2)CC1 [Compound I-90, 4-(4-fluoro-3-(3-((1-(methoxymethyl)cyclopropyl)amino)azetidine-1-carbonyl)benzyl)phthalazin-1(2H)-one] | 50 to 300 nM |
| C#CCCNC1CN(C(=O)c2cc(Cc3n[nH]c(=O)c4ccccc34)ccc2F)C1 [Compound I-91, 4-(3-(3-(but-3-yn-1-ylamino)azetidine-1-carbonyl)-4-fluorobenzyl)phthalazin-1(2H)-one] | 50 to 300 nM |
| C=C(C)CNC1CN(C(=O)c2cc(Cc3n[nH]c(=O)c4ccccc34)ccc2F)C1 [Compound I-92, 4-(4-fluoro-3-(3-((2-methylallyl)amino)azetidine-1-carbonyl)benzyl)phthalazin-1(2H)-one] | 5 to 50 nM |
| CC(C)(CO)CNC1CN(C(=O)c2cc(Cc3n[nH]c(=O)c4ccccc34)ccc2F)C1 [Compound I-93, 4-(4-fluoro-3-(3-((3-hydroxy-2,2-dimethylpropyl)amino)azetidine-1-carbonyl)benzyl)phthalazin-1(2H)-one] | 50 to 300 nM |
| N#CC1(CNC2CN(C(=O)c3cc(Cc4n[nH]c(=O)c5ccccc45)ccc3F)C2)CC1 [Compound I-94, 1-(((1-(2-fluoro-5-((4-oxo-3,4-dihydrophthalazin-1-yl)methyl)benzoyl)azetidin-3-yl)amino)methyl)cyclopropanecarbonitrile] | 300 to 1000 nM |
| O=C(c1cc(Cc2n[nH]c(=O)c3ccccc23)ccc1F)N1CC(NCC(F)(F)F)C1 [Compound I-95, 4-(4-fluoro-3-(3-((2,2,2-trifluoroethyl)amino)azetidine-1-carbonyl)benzyl)phthalazin-1(2H)-one] | 50 to 300 nM |
| O=C(c1cc(Cc2n[nH]c(=O)c3ccccc23)ccc1F)N1CC(N[C@@H]2CCNC2)C1 [Compound I-96, (R)-4-(4-fluoro-3-(3-(pyrrolidin-3-ylamino)azetidine-1-carbonyl)benzyl)phthalazin-1(2H)-one] | 300 to 1000 nM |
| N#CC1(NC2CN(C(=O)c3cc(Cc4n[nH]c(=O)c5ccccc45)ccc3F)C2)CCCC1 [Compound I-98, 1-((1-(2-fluoro-5-((4-oxo-3,4-dihydrophthalazin-1-yl)methyl)benzoyl)azetidin-3-yl)amino)cyclopentanecarbonitrile] | 300 to 1000 nM |
| CCC(C#N)NC1CN(C(=O)c2cc(Cc3n[nH]c(=O)c4ccccc34)ccc2F)C1 (stereo not shown) [Compound I-101, 2-((1-(2-fluoro-5-((4-oxo-3,4-dihydrophthalazin-1-yl)methyl)benzoyl)azetidin-3-yl)amino)butanenitrile] | 300 to 1000 nM |
| CC(C)C(C#N)NC1CN(C(=O)c2cc(Cc3n[nH]c(=O)c4ccccc34)ccc2F)C1 (stereo not shown) [Compound I-102, 2-((1-(2-fluoro-5-((4-oxo-3,4-dihydrophthalazin-1-yl)methyl)benzoyl)azetidin-3-yl)amino)-3-methylbutanenitrile] | 300 to 1000 nM |
| N#CC(NC1CN(C(=O)c2cc(Cc3n[nH]c(=O)c4ccccc34)ccc2F)C1)C1CC1 (stereo not shown) [Compound I-103, 2-cyclopropyl-2-((1-(2-fluoro-5-((4-oxo-3,4-dihydrophthalazin-1-yl)methyl)benzoyl)azetidin-3-yl)amino)acetonitrile] | 300 to 1000 nM |
| O=C(c1cc(Cc2n[nH]c(=O)c3ccccc23)ccc1F)N1CC(NC2(C(F)(F)F)CCC2)C1 [Compound I-104, 4-(4-fluoro-3-(3-((1-(trifluoromethyl)cyclobutyl)amino)azetidine-1-carbonyl)benzyl)phthalazin-1(2H)-one] | 300 to 1000 nM |
| O=C(c1cc(Cc2n[nH]c(=O)c3ccccc23)ccc1F)N1CC(Nc2ncccn2)C1 [Compound I-109, 4-(4-fluoro-3-(3-(pyrimidin-2-ylamino)azetidine-1-carbonyl)benzyl)phthalazin-1(2H)-one] | 300 to 1000 nM |
| O=C(c1cc(Cc2n[nH]c(=O)c3ccccc23)ccc1F)N1CC[C@H](Nc2ncccn2)C1 [Compound I-110, (S)-4-(4-fluoro-3-(3-(pyrimidin-2-ylamino)pyrrolidine-1-carbonyl)benzyl)phthalazin-1(2H)-one] | 300 to 1000 nM |
| CN(c1ccc(Cl)nn1)[C@H]1CCN(C(=O)c2cc(Cc3n[nH]c(=O)c4ccccc34)ccc2F)C1 [Compound I-111, (S)-4-(3-(3-((6-chloropyridazin-3-yl)(methyl)amino)pyrrolidine-1-carbonyl)-4-fluorobenzyl)phthalazin-1(2H)-one] | 300 to 1000 nM |
| O=C(c1cc(Cc2n[nH]c(=O)c3ccccc23)ccc1F)N1CC[C@H](Nc2ccc(Cl)nn2)C1 [Compound I-112, (S)-4-(3-(3-((6-chloropyridazin-3-yl)amino)pyrrolidine-1-carbonyl)-4-fluorobenzyl)phthalazin-1(2H)-one] | 300 to 1000 nM |
| CN(c1cccnn1)[C@H]1CCN(C(=O)c2cc(Cc3n[nH]c(=O)c4ccccc34)ccc2F)C1 [Compound I-113, (S)-4-(4-fluoro-3-(3-(methyl(pyridazin-3-yl)amino)pyrrolidine-1-carbonyl)benzyl)phthalazin-1(2H)-one] | 300 to 1000 nM |
| CN(c1ccc(Cl)nn1)C1CN(C(=O)c2cc(Cc3n[nH]c(=O)c4ccccc34)ccc2F)C1 [Compound I-115, 4-(3-(3-((6-chloropyridazin-3-yl)(methyl)amino)azetidine-1-carbonyl)-4-fluorobenzyl)phthalazin-1(2H)-one] | 300 to 1000 nM |
| O=C(c1cc(Cc2n[nH]c(=O)c3ccccc23)ccc1F)N1CC(N(c2ncccn2)C2CCC2)C1 [Compound I-116, 4-(3-(3-(cyclobutyl(pyrimidin-2-yl)amino)azetidine-1-carbonyl)-4-fluorobenzyl)phthalazin-1(2H)-one] | 300 to 1000 nM |
| O=C(c1cc(Cc2n[nH]c(=O)c3ccccc23)ccc1F)N1CC[C@@H](Nc2ccc(Cl)nn2)C1 [Compound I-118, (R)-4-(3-(3-((6-chloropyridazin-3-yl)amino)pyrrolidine-1-carbonyl)-4-fluorobenzyl)phthalazin-1(2H)-one] | 300 to 1000 nM |
| CCN(c1ncccn1)[C@@H]1CCN(C(=O)c2cc(Cc3n[nH]c(=O)c4ccccc34)ccc2F)C1 [Compound I-121, (R)-4-(3-(3-(ethyl(pyrimidin-2-yl)amino)pyrrolidine-1-carbonyl)-4-fluorobenzyl)phthalazin-1(2H)-one] | 300 to 1000 nM |
| O=C(c1cc(Cc2n[nH]c(=O)c3ccccc23)ccc1F)N1CC[C@@H](Nc2nccs2)C1 [Compound I-124, (R)-4-(4-fluoro-3-(3-(thiazol-2-ylamino)pyrrolidine-1-carbonyl)benzyl)phthalazin-1(2H)-one] | 50 to 300 nM |
| C#Cc1cnc(N[C@@H]2CCN(C(=O)c3cc(Cc4n[nH]c(=O)c5ccccc45)ccc3F)C2)nc1 [Compound I-125, (R)-4-(3-(3-((5-ethynylpyrimidin-2-yl)amino)pyrrolidine-1-carbonyl)-4-fluorobenzyl)phthalazin-1(2H)-one] | ≤ 5 nM |
| N#Cc1cnc(N[C@@H]2CCN(C(=O)c3cc(Cc4n[nH]c(=O)c5ccccc45)ccc3F)C2)nc1 [Compound I-126, (R)-2-((1-(2-fluoro-5-((4-oxo-3,4-dihydrophthalazin-1-yl)methyl)benzoyl)pyrrolidin-3-yl)amino)pyrimidine-5-carbonitrile] | 5 to 50 nM |
| O=C(c1cc(Cc2n[nH]c(=O)c3ccccc23)ccc1F)N1CC[C@@H](Nc2ccccn2)C1 [Compound I-128, (R)-4-(4-fluoro-3-(3-(pyridin-2-ylamino)pyrrolidine-1-carbonyl)benzyl)phthalazin-1(2H)-one] | 5 to 50 nM |
